Consider 22 compounds from patent US3976788A (priority 1974, dated 1976).

“Also recorded” adds a separate entry of the source. Where two headings read alike, the source gives them in different places.

Data set [1] relates to male CF-1 mice. Nature of the data set: Convulsions in mice, 5 min inhalation exposure to test compound in air. The settings on record: for ADDITIONAL REMARKS: type of convulsions and other effects: Table 1; for MOUSE CONVULSANT CONC., VOL. %: inhalation, 5 min. It is filed as in vivo, mouse (male CF-1). On the procedure:
(§1) If anesthesia occurred, the median anesthetic concentration (AC50) was established. Another thirty mice were treated similarly to establish the median lethal concentration (LC50). The concentrations were calculated from the volume used and density of the test compound and the volume of air (6.3 l) in the test jar using the ideal gas law. The results for the convulsant ethers are given in Table 1; Tables 2 and 3 contain the results for related nonconvulsant ethers, most of which are good anesthetic agents.

Data set [2] relates to male CF-1 mice. Nature of the data set: Lethality in mice (median lethal concentration LC50). In kind it is in vivo, mouse (male CF-1). The settings on record: for MOUSE LC50: inhalation, 5 min. How it is done:
as §1

Data set [3] is described as follows: Stability to heat. It is filed as physicochemical. On the procedure: which can be treated with about a 0.4 molar equivalent of bromine trifluoride at -5° C to give the ether V (See Examples 8 and 9).
Data set [4] deals with dogs. Nature of the data set: Convulsions / other effects in dogs. It is filed as in vivo, dog.
The subject of data set [5] is male CF-1 mice. In words: Anesthesia in mice (median anesthetic concentration AC50). In kind it is in vivo, mouse (male CF-1). To be noted: inhalation, 5 min. On the procedure:
as §1

Data set [6] concerns male CF-1 mice. The settings on record: footnote 5 (Krantz et al.); cited from earlier work.
Data set [7] deals with male CF-1 mice. The settings on record: footnote 5 (Krantz et al.); cited from earlier work. This is another data set of the same source.
For data set [8] the following is noted: footnote 3 (Aldrich and Sheppard); cited from earlier work.
Data set [9] relates to flurothyl induced convulsions. The settings on record: footnote 5 (Krantz et al.); cited from earlier work.

Take `FC(F)OCC(F)(F)C(F)F` [I, Difluoromethyl 2,2,3,3-tetrafluoropropyl ether]: in data set [1], the “ADDITIONAL REMARKS: type of convulsions and other effects” value (shortened to “ADDITIONAL REMARKS: type”) was “CLONIC CONVULSIONS”; the “MOUSE CONVULSANT CONC., VOL. %” value was 1.0 VOL. %. For the same compound, the “MOUSE LC50” value in data set [2] was determined as 3.2 VOL. %. Moreover, the “stability to heat compared with V” value in data set [3] is reported as “more stable than V to heat”.
For `FC(F)OCC(F)(F)C(F)(F)F` [II, Difluoromethyl 2,2,3,3,3-pentafluoropropyl ether], in that order: “CLONIC AND TONIC CONVULSIONS; also recorded: CATALEPSY”, 1.4 VOL. %, above 4.2 VOL. % and “more stable than V to heat”.
With `FC(F)OC(F)(F)C(F)C(F)(F)F` (stereo not shown) [III, Difluoromethyl 1,1,2,3,3,3-hexafluoropropyl ether], the “MOUSE CONVULSANT CONC., VOL. %” value in [1] is on record as 2.0 VOL. %. For the same compound, in data set [2], the “MOUSE LC50” value was above 12 VOL. %. Further, the “stability to heat compared with V” value in data set [3] is “more stable than V to heat”.
In the case of `FC(F)OC(F)(C(F)F)C(F)F` [IV, Difluromethyl 1,1,2,3,3-pentafluoro-2-propyl ether], in [1], the “ADDITIONAL REMARKS: type” value is “C[…] SEDATION”; the “MOUSE CONVULSANT CONC., VOL. %” value is recorded as 1.2 VOL. %. Further, in data set [2], the “MOUSE LC50” value is recorded as 5.3 VOL. %. The “ADDITIONAL REMARKS: convulsions in dogs” value in data set [4] was “OPI[…]. IN DOGS”. Also, the “stability to heat compared with V” value in data set [3] was “more stable than V to heat”.
Regarding `FC(F)OC(F)C(F)(F)C(F)(F)F` (stereo not shown) [IX], the “MOUSE AC50 (median anesthetic concentration)” value (from here on “MOUSE AC50”) in [5] stood at 4.3 VOL. %. Moreover, the “MOUSE LC50” value in [2] was above 9.9 VOL. %.
For the compound `FCOCC(F)(F)C(F)(F)F` [V, Fluoromethyl 2,2,3,3,3-pentafluoropropyl ether], in data set [1], the “ADDITIONAL REMARKS: type” value was “METRAZOLE-LIKE CONVULSIONS”; the “MOUSE CONVULSANT CONC., VOL. %” value worked out at 1.5 VOL. %. In addition, the “MOUSE LC50” value in data set [2] is above 3.0 VOL. %. In addition, the “stability to heat in the presence of an alkaline material” value in data set [3] (e.g., soda lime) is “stable to 70 °C”. The stability to heat result in data set [3] (upon distillation at 760 torr) is “unstable to heat and decomposed with the formation of hydrogen fluoride”.
On to `FC(F)(F)COCC(F)(F)F` [VII, fluorothyl], for which the “ADDITIONAL REMARKS: type” value in [1] is listed as “CLONIC AND TONIC CONVULSIONS”. The “ADDITIONAL REMARKS: time of convulsions” value in data set [1] (clonic and tonic convulsions) worked out at 30 s. Besides, in [6], the “MOUSE CONVULSANT CONC., VOL. %” value was at most 0.25 VOL. %. For the same compound, the “MOUSE LC50” value in data set [7] is below 0.50 VOL. %.
Consider `FC(F)C(F)(F)COC(F)(F)F` [VI], for which the “MOUSE CONVULSANT CONC., VOL. %” value in [1] is recorded as at most 0.5 VOL. %. In [2], the “MOUSE LC50” value is at most 0.5 VOL. %. Moreover, in data set [8], the “ADDITIONAL REMARKS: convulsions and death” value was “VIOLENT C[…] DEATH”; the “ADDITIONAL REMARKS: time of convulsions and death” value is 30 to 120 s.
As to `FCOC(F)(F)C(F)C(F)(F)F` (stereo not shown) [XIII], the “MOUSE AC50” value in data set [5] was determined as 2.1 VOL. %. In addition, the “MOUSE LC50” value in data set [2] came out at 6.4 VOL. %.
In the case of `FC(F)OC(C(F)F)C(F)F` [XII], the “MOUSE AC50” value in [5] came out at 0.64 VOL. %. For the same compound, in data set [2], the “MOUSE LC50” value stood at 3.8 VOL. %.
As to `FCOC(F)(C(F)F)C(F)(F)F` (stereo not shown) [XIV], the “MOUSE AC50” value in [5] stood at 2.5 VOL. %. For the same compound, the “MOUSE LC50” value in data set [2] is given as 9.0 VOL. %. Further, in data set [4], the “ADDITIONAL REMARKS: convulsions in dogs” value is “NON[…] DOGS”.
Regarding `COCC(F)(F)C(F)(F)F` [XIX, methyl 2,2,3,3,3-pentafluoropropyl ether], the “MOUSE AC50” value in data set [5] worked out at 11 VOL. %. Besides, in data set [2], the “MOUSE LC50” value was found to be 16 VOL. %.
For `FC(F)OC(C(F)F)C(F)(F)F` (stereo not shown) [XI], in that order: 0.84 VOL. % and 4.9 VOL. %.
As for `COC(F)(F)C(F)C(F)(F)F` (stereo not shown) [XVIII, methyl 1,1,2,3,3,3-hexafluoropropyl ether], in data set [5], the “MOUSE AC50” value turned out to be 3.9 VOL. %. Besides, the “MOUSE LC50” value in data set [2] was above 8.0 VOL. %.
Take `COC(F)(F)C(F)(F)C(F)(F)F` [XVII]: the “MOUSE LC50” value in data set [2] stood at 50 VOL. %. Moreover, the “ADDITIONAL REMARKS: cause of death” value in [2] (mouse) was “DEATH DUE TO ANOXIA”.
For `FCOC(C(F)F)C(F)(F)F` (stereo not shown) [XVI], in data set [5], the “MOUSE AC50” value was determined as 0.84 VOL. %. Further, the “MOUSE LC50” value in [2] was determined as 5.1 VOL. %.
With `FCOC(C(F)(F)F)C(F)(F)F` [XV], the “MOUSE AC50” value in [5] was 1.4 VOL. %. Also, in [2], the “MOUSE LC50” value was determined as 8.5 VOL. %. Besides, in [4], the “ADDITIONAL REMARKS: convulsions in dogs” value was “NON[…] DOGS”.
Turning to `COC(C(F)F)C(F)F` [XXIII], the “MOUSE AC50” value in data set [5] is on record as 1.4 VOL. %. For the same compound, the “MOUSE LC50” value in [2] is on record as above 7.8 VOL. %.
On the same counts, the results for `COC(C(F)F)C(F)(F)F` (stereo not shown) [XXII] are 1.5 VOL. % and 6.9 VOL. %.
With `COC(C(F)(F)F)C(F)(F)F` [XXI], the “MOUSE AC50” value in data set [5] is 2.2 VOL. %. Besides, the “MOUSE LC50” value in data set [2] worked out at 9.0 VOL. %. For the same compound, in [4], the “ADDITIONAL REMARKS: convulsions in dogs” value was “NON[…] DOGS”. For the same compound, the “antagonist to flurothyl (induced convulsions)” value in data set [9] is “ANTAGONIST”.
On to `COCC(F)(F)C(F)F` [XX], for which, in data set [5], the “MOUSE AC50” value stood at 2.5 VOL. %. In data set [2], the “MOUSE LC50” value was 7.0 VOL. %.
For the compound `FC(F)OC(C(F)(F)F)C(F)(F)F` [X], in data set [5], the “MOUSE AC50” value was determined as 2.5 VOL. %. For the same compound, the “MOUSE LC50” value in data set [2] worked out at 12 VOL. %. Besides, the “ADDITIONAL REMARKS: convulsions in dogs” value in [4] was “NON[…] DOGS”.
